{"source": "patent US8865659B2", "about": "“Compositions for prevention or treatment of Hepatitis C virus containing ginsenoside Rg3 as an active ingredient” (priority 2012, dated 2014)", "key": {"[1]": {"test_system": "HCV CORE", "test": "Western blotting against HCV CORE in JFH-1 infected Huh 7.5.1 cells", "type": "cell-based, Hepatitis C virus (JFH-1)", "method": "(§1) The experiment was carried out as follow. First, 200,000 Huh 7.5.1 cells were placed in a 60×15 mm cell culture dish. Next day, Japanese Fulminant Hepatitis-1 virus (JFH-1) stock vial which was stored in −70° C. refrigerator was taken out and thawed out in a container filled with ice-water. The culture medium was collected from the cultured 60×15 mm cell culture dish, washed with 1×PBS and collected, again. 1.5 ml of JFH-1 virus solution per 60×15 mm cell culture dish each was added. The dish was shaken to cover the surface sufficiently. The dish was laid in a 5% CO2 incubator at 37° C. for 6 hours and after that, the supernatant was draw out. 1×PBS was spread on the cell surface as slow as possible and after one time washing, cells were collected. 5 ml of cell culture media was added to control and JFH-1 treatments groups. At the last step of virus-infection, 5 ml CM and each […] of ginsenosides which was set to 50 mM concentration were added to the cell culture media. After that, the cell culture media was laid in a 5% CO2 incubator at 37° C. After 72 hours, the following steps were carried out.\nAs described in the above Example 3, the Huh 7.5.1 cells were treated with each 100 μM of seven ginsenosides (Ro, Re, Rg1, Rg2, Rg3, Rh1, Rh2). After 72 hours, a western blotting analysis was carried out for analyzing virus suppression effect against HCV CORE and cleaved PARP.\nSpecific western blotting analysis carried out was as follow. First, the above described samples were prepared, mixed with a sample buffer in tubes and heated at 100° C. for 10 minutes. The tubes were cooled on ice and centrifuged. The electrophoresis was carried out with the above samples and molecular weight markers, and then they were transferred to a PVDF membrane (hydrophobic). After blocking with 5% skin milk for an hour, each primary antibody was added. After staying overnight at 4° C., washings three times for every 10 minutes were conducted, and the blocking was carried out with 5% skin milk for an hour at the room temperature. After that, each secondary antibody was added, and the reaction for an hour and washing three times for every 10 minutes were conducted. Then, the membrane was stained by 1:1 mix with detection reagents A (Luminol Enhancer solution) and B (Peroxide solution) and developed with X ray film.\nTo examine the dose-dependent anti-virus effect of ginsenoside Rg3, western blotting analysis against cleaved PARP and HCV CORE were carried out with the samples of ginsenosides Rg3 treatment concentration at 10 μM, 25 μM, 50 μM and 100 μM each.\nTo examine the dose-dependent anti-virus effect of ginsenoside Rh2, western blotting analysis against cleaved PARP and HCV CORE were carried out with the samples of ginsenosides Rh2 treatment concentration at 10 μM, 25 μM and 50 μM each. […]"}, "[2]": {"test_system": "Huh 7.5.1 cells infected with JFH-1 virus", "test": "Microscopic identification of virus suppression effect (cell shape, phase contrast microscope)", "type": "cell-based", "details": "100 μM, JFH-1 infected", "method": "About 200,000 Huh 7.5.1 cells were added to a 60×15 mm cell culture dish and every 100 μM of seven ginsenosides (Ro, Re, Rg1, Rg2, Rg3, Rh1, Rh2) per 60×15 mm cell culture dish each was treated. Since it was necessary for ginsenosides in powder formulation to make solutions for the experiments, 50 mM basic concentration solutions for the seven ginsenosides each were prepared and the basic solutions were refrigerated at 4° C. until they were needed.\nNon-treatment group (Control), Non-treatment group and DMSO 10 μl treatment group (Control+DMSO 10 μl), JFH-1 virus treatment group (Only JFH-1), JFH-1 virus and DMSO 10 μl treatments group (JFH-1+DMSO 10 μl), JFH-1 virus and Ro 100 uM treatments group (JFH-1+Ro 100 uM), JFH-1 virus and Re 100 uM treatments group (JFH-1+Re 100 uM), JFH-1 virus and Rg1 100 uM treatments group (JFH-1+Rg1 100 uM), JFH-1 virus and Rg2 100 uM treatments group (JFH-1+Rg2 100 uM), JFH-1 virus and Rg3 100 uM treatments group (JFH-1+Rg3 100 uM), JFH-1 virus and Rh1 100 uM treatments group (JFH-1+Rh1 100 uM), JFH-1 virus and Rh2 100 uM treatments group (JFH-1+Rh2 100 uM), JFH-1 virus and Rg1 100 uM treatments group (JFH-1+Rg1 100 uM).\nas §1\nAs described in the above Example 3, each 100 μM of seven ginsenosides (Ro, Re, Rg1, Rg2, Rg3, Rh1, Rh2) was treated to Huh 7.5.1 cells. After 24 hours and 72 hours, the shapes of Huh 7.5.1 cells were observed using a phase contrast microscope (ECLIPSE TE300, Nicon) of 400× magnifications."}, "[3]": {"test_system": "cleaved PARP", "test": "Western blotting against cleaved PARP (apoptosis) in JFH-1 infected Huh 7.5.1 cells", "type": "cell-based", "method": "as §1\nAs described in the above Example 3, the Huh 7.5.1 cells were treated with each 100 μM of seven ginsenosides (Ro, Re, Rg1, Rg2, Rg3, Rh1, Rh2). After 72 hours, a western blotting analysis was carried out for analyzing virus suppression effect against HCV CORE and cleaved PARP. […]"}, "[4]": {"test_system": "thioredoxin", "test": "Western blotting against thioredoxin in JFH-1 infected Huh 7.5.1 cells", "type": "cell-based", "details": "100 μM, 72 hours", "method": "To examine the ginsenoside Rg3 effect onto anti-oxidant enzymes, western blotting analysis against thioredoxin, an anti-oxidant enzyme induced by Hepatitis C, was carried out. the analysis was conducted 72 hours after the samples of Huh 7.5.1 cells treated with each 100 μM of seven ginsenosides (Ro, Re, Rg1, Rg2, Rg3, Rh1, Rh2) as described above in the Example 3.\nSpecifically, western blotting analysis was carried out as follow. First, the above described samples were prepared, mixed with a sample buffer in tubes, and heated at 100° C. for 10 minutes. The tubes were cooled on ice and centrifuged. The electrophoresis was carried out with the prepared samples and molecular weight markers were put in. And then, they were transferred to a PVDF membrane (hydrophobic). After blocking with 5% skin milk for an hour, primary antibodies of thioredoxin was added. After staying overnight at 4° C., washing three times for every 10 minutes, blocking with 5% skin milk for an hour at the room temperature was carried out. After that, each secondary antibody was added and waited one hour for its reaction and washing three times for every 10 minutes were carried out. Then, the membrane was stained by 1:1 mixture of detection reagents A (Luminol Enhancer solution) and B (Peroxide solution) and developed with X ray film."}}}
{"molecule": "CC(C)=CCC[C@](C)(O)[C@H]1CC[C@]2(C)[C@@H]1[C@H](O)C[C@@H]1[C@@]3(C)CC[C@H](O[C@@H]4O[C@H](CO)[C@@H](O)[C@H](O)[C@H]4O[C@@H]4O[C@H](CO)[C@@H](O)[C@H](O)[C@H]4O)C(C)(C)[C@@H]3CC[C@]12C", "note": "[ginsenoside Rg3]", "values": [{"measurement": "virus suppression effect (HCV CORE), dose dependence", "setting": "[1]; 10 μM, 25 μM, 50 μM and 100 μM", "result": "dose-dependent manner"}, {"measurement": "HCV CORE", "setting": "[1]; 100 μM, 72 hours", "result": "remarkably decreased"}, {"measurement": "anti-virus effect compared with interferon", "setting": "[1]; comparison with PegIFN alpha-2b", "result": "same anti-virus effect as the interferon therapeutics"}, {"measurement": "shapes of Huh 7.5.1 cells", "setting": "[2]; 24 hours after treatment", "result": "fuses cells"}, {"measurement": "shapes of Huh 7.5.1 cells", "setting": "[2]; 72 hours after treatment", "result": "fuses cells"}, {"measurement": "apoptosis of the cells (cleaved PARP), dose dependence", "setting": "[3]; 10 μM, 25 μM, 50 μM and 100 μM", "result": "dose-dependent manner"}, {"measurement": "cleaved PARP", "setting": "[3]; 100 μM, 72 hours", "result": "decreased"}, {"measurement": "thioredoxin", "setting": "[4]", "result": "decreased"}]}
